Data taken from patent US20230286929A1, “AROMATIC BRIDGED RING AMIDE DERIVATIVES FOR THE TREATMENT AND PROPHYLAXIS OF HEPATITIS B VIRUS INFECTION” (Hoffmann-La Roche Inc., priority 2020, published 2023).

How the values were obtained:
Format in all cases: cell-based
[1] = tested on: HBsAg; assay: PHH HBV natural infection assay, HBsAg (alphalisa); conditions: Hepatitis B virus, Hepatocyte, 72 h, read-out: HBsAg IC50
Method: (§1) Detailed procedures regarding primary human hepatocyte (PHH) HBV natural infection assay are described as below. One tube of frozen PHH (10 million cells) is thawed in 37° C. water bath and then transferred to 20 mL of PHH thawing medium (Sigma, InVitroGRO HT Medium, Cat. S03319) with gently mixing. The cells were then centrifuged at […] for 5 min, the supernatant was discarded and the tube was refilled with 25 mL of PHH plating medium (Sigma, InVitroGRO CP Medium, Cat. 503317). The tube was shaken very gently to re-suspend all cells. 50 μl of cells were transferred to each well 384-well collagen I coated plate with appropriate liquid handling equipment, e.g. Integra VIAFLO384 or Agilent Bravo. The cells were then cultured for 24 hours in a cell incubator. For HBV infection, after PHH attachment on the culture plate, the plating medium was removed and replenished with PHH culture medium containing HBV virus. The PHH culture medium was prepared with Dulbecco's Modified Eagle Medium (DMEM)/F12 (1:1 in volume ratio) containing 10% fetal bovine serum (Gibco, Cat. 10099141), […] (Gibco, Cat. PHG03I1L), 20 ng/mL dexamethasone (Sigma, Cat. D4902-100 mg), 250 ng/mL human recombinant insulin (Gibco, Cat. 41400045) and 100 U/mL penicillin. HBV virus at 200 genome equivalent (GE) per cell with 4% PEG8000 (Sigma, Cat. P1458) containing culture medium were added to the PHH culture medium for infection. The cells were then cultured for 24 hours in cell incubator. Then the cell culture supernatant was removed. The HBV-infected PHH were cultured with sandwich culture method with PHH culture medium containing 1% DMSO and 0.25 mg/mL matrix gel for 72 hours. The supernatant was then refreshed with PHH culture medium containing different concentrations of testing compounds for two times with 72-hour interval. At the end of treatment, the supernatant was collected for viral markers measurements, including HBsAg, HBeAg, HBV DNA and cytotoxicity. HBsAg and HBeAg were detected using alphalisa method using their specific antibodies. For HBV DNA detection, HBV DNA Quantitative Fluorescence Diagnostic Kit (Sansure Biotech Inc.) was used following the manufacture's protocol. Cytotoxicity was determined using Cell Counting Kit-8 (CCK8, Dojindo Molecular Technologies, Inc.).
(§2) The compounds of the present invention were tested for their capacity to inhibit HBsAg and HBeAg as described herein.

[2] = tested on: HBeAg; assay: PHH HBV natural infection assay, HBeAg (alphalisa); conditions: Hepatitis B virus, Hepatocyte, 72 h, read-out: HbeAg IC50
Method: as §1, §2

[3] = Cytotoxicity in PHH natural infection assay (Cell Counting Kit-8); conditions: HBV-infected primary human hepatocytes, CCK8
Method: as §1

| Compound | IC50 [1] [µM] | IC50 [2] [µM] | CC50 at 144 h [3] [µM] |
| --- | --- | --- | --- |
| CS(=O)(=O)c1ccc(C(=O)NC23CC(c4nc5cc(Cl)ccc5o4)(C2)C3)o1 [Example 1, N-[3-(5-chloro-1,3-benzoxazol-2-yl)-1-bicyclo[1.1.1]pentanyl]-5-methylsulfonyl-furan-2-carboxamide] | 2.17 | 1.77 | > 100 |
| C[S+]([O-])c1ccc(C(=O)NC23CC(c4nc5cc(Cl)ccc5o4)(C2)C3)o1 (stereo not drawn) [Example 2, N-[3-(5-chloro-1,3-benzoxazol-2-yl)-1-bicyclo[1.1.1]pentanyl]-5-methylsulfinyl-furan-2-carboxamide] | 6.45 | 2.14 | > 100 |
| C[S@+]([O-])c1ccc(C(=O)NC23CC(c4nc5cc(Cl)ccc5o4)(C2)C3)o1 [Example 2-a, N-[3-(5-chloro-1,3-benzoxazol-2-yl)-1-bicyclo[1.1.1]pentanyl]-5-[(S)-methylsulfinyl]furan-2-carboxamide] | 2.38 | 1.19 | > 100 |
| C[S@@+]([O-])c1ccc(C(=O)NC23CC(c4nc5cc(Cl)ccc5o4)(C2)C3)o1 [Example 2-b, N-[3-(5-chloro-1,3-benzoxazol-2-yl)-1-bicyclo[1.1.1]pentanyl]-5-[(R)-methylsulfinyl]furan-2-carboxamide] | 3.64 | 1.89 | > 100 |
| CSc1ccc(C(=O)NC23CC(c4nc5cc(Cl)ccc5o4)(C2)C3)o1 [Example 3, N-[3-(5-chloro-1,3-benzoxazol-2-yl)-1-bicyclo[1.1.1]pentanyl]-5-methylsulfanyl-furan-2-carboxamide] | 8.05 | 3.83 | > 100 |
| O=C(NC12CC(c3nc4cc(Cl)ccc4o3)(C1)C2)c1ccc([S+]([O-])C2CC2)o1 (stereo not drawn) [Example 4, N-[3-(5-chloro-1,3-benzoxazol-2-yl)-1-bicyclo[1.1.1]pentanyl]-5-cyclopropylsulfinyl-furan-2-carboxamide] | 2.81 | 1.32 | 80 |
| O=C(NC12CC(c3nc4cc(Cl)ccc4o3)(C1)C2)c1ccc(S(=O)(=O)C2CC2)o1 [Example 5, N-[3-(5-chloro-1,3-benzoxazol-2-yl)-1-bicyclo[1.1.1]pentanyl]-5-cyclopropylsulfonyl-furan-2-carboxamide] | 0.688 | 0.75 | > 100 |
| O=C(NC12CC(c3nc4cc(Cl)ccc4o3)(C1)C2)c1ccc([S+]([O-])CC2CC2)o1 (stereo not drawn) [Example 6, N-[3-(5-chloro-1,3-benzoxazol-2-yl)-1-bicyclo[1.1.1]pentanyl]-5-(cyclopropylmethylsulfinyl)furan-2-carboxamide] | 2.02 | 1.37 | > 100 |
| O=C(NC12CC(c3nc4cc(Cl)ccc4o3)(C1)C2)c1ccc(S(=O)(=O)CC2CC2)o1 [Example 7, N-[3-(5-chloro-1,3-benzoxazol-2-yl)-1-bicyclo[1.1.1]pentanyl]-5-(cyclopropylmethylsulfonyl)furan-2-carboxamide] | 1.31 | 1.21 | 73.1 |
| O=C(NC12CC(c3nc4cc(Cl)ccc4o3)(C1)C2)c1ccc(Br)o1 [Example 8, 5-bromo-N-[3-(5-chloro-1,3-benzoxazol-2-yl)-1-bicyclo[1.1.1]pentanyl]furan-2-carboxamide] | 9.04 | 14.8 | > 100 |
| CS(=O)(=O)c1ccc(C(=O)NC23CC(c4nc5cc(Cl)ccc5o4)(C2)C3)s1 [Example 9, N-[3-(5-chloro-1,3-benzoxazol-2-yl)-1-bicyclo[1.1.1]pentanyl]-5-methylsulfonyl-thiophene-2-carboxamide] | 9.64 | 5.37 | > 100 |
| NS(=O)(=O)c1ccc(C(=O)NC23CC(c4nc5cc(Cl)ccc5o4)(C2)C3)o1 [Example 10, N-[3-(5-chloro-1,3-benzoxazol-2-yl)-1-bicyclo[1.1.1]pentanyl]-5-sulfamoyl-furan-2-carboxamide] | 4.44 | 2.67 | > 100 |
| N=S(=O)(c1ccc(C(=O)NC23CC(c4nc5cc(Cl)ccc5o4)(C2)C3)o1)C1CC1 (stereo not drawn) [Example 11, N-[3-(5-chloro-1,3-benzoxazol-2-yl)-1-bicyclo[1.1.1]pentanyl]-5-(cyclopropylsulfonimidoyl)furan-2-carboxamide] | 0.823 | 0.594 | > 100 |
| CS(=N)(=O)c1ccc(C(=O)NC23CC(c4nc5cc(Cl)ccc5o4)(C2)C3)o1 (stereo not drawn) [Example 12, N-[3-(5-chloro-1,3-benzoxazol-2-yl)-1-bicyclo[1.1.1]pentanyl]-5-(methylsulfonimidoyl)furan-2-carboxamide] | 1.52 | 0.891 | > 100 |
| C[S@@](=N)(=O)c1ccc(C(=O)NC23CC(c4nc5cc(Cl)ccc5o4)(C2)C3)o1 [Example 12-a, N-[3-(5-chloro-1,3-benzoxazol-2-yl)-1-bicyclo[1.1.1]pentanyl]-5-[(R)-methylsulfonimidoyl]furan-2-carboxamide] | 2.23 | 1.3 | > 100 |
| C[S@](=N)(=O)c1ccc(C(=O)NC23CC(c4nc5cc(Cl)ccc5o4)(C2)C3)o1 [Example 12-b, N-[3-(5-chloro-1,3-benzoxazol-2-yl)-1-bicyclo[1.1.1]pentanyl]-5-[(S)-methylsulfonimidoyl]furan-2-carboxamide] | 2.19 | 1.01 | > 100 |
| N=S(=O)(CC1CC1)c1ccc(C(=O)NC23CC(c4nc5cc(Cl)ccc5o4)(C2)C3)o1 (stereo not drawn) [Example 13, N-[3-(5-chloro-1,3-benzoxazol-2-yl)-1-bicyclo[1.1.1]pentanyl]-5-(cyclopropylmethylsulfonimidoyl)furan-2-carboxamide] | 0.95 | 0.995 | > 100 |
| O=C(NC12CC(c3nc4cc(Cl)ccc4o3)(C1)C2)c1ccc(S(=O)(=O)CC2COC2)o1 [Example 14, N-[3-(5-chloro-1,3-benzoxazol-2-yl)-1-bicyclo[1.1.1]pentanyl]-5-(oxetan-3-ylmethylsulfonyl)furan-2-carboxamide] | 5.18 | 3.56 | 95.7 |
| N=S(=O)(CC1COC1)c1ccc(C(=O)NC23CC(c4nc5cc(Cl)ccc5o4)(C2)C3)o1 (stereo not drawn) [Example 15, N-[3-(5-chloro-1,3-benzoxazol-2-yl)-1-bicyclo[1.1.1]pentanyl]-5-(oxetan-3-ylmethylsulfonimidoyl)furan-2-carboxamide] | 4.76 | 3.31 | > 100 |
| CS(=O)(=O)Cc1ccc(C(=O)NC23CC(c4nc5cc(Cl)ccc5o4)(C2)C3)o1 [Example 16, N-[3-(5-chloro-1,3-benzoxazol-2-yl)-1-bicyclo[1.1.1]pentanyl]-5-(methylsulfonylmethyl)furan-2-carboxamide] | 0.66 | 0.575 | > 100 |
| CS(=N)(=O)Cc1ccc(C(=O)NC23CC(c4nc5cc(Cl)ccc5o4)(C2)C3)o1 (stereo not drawn) [Example 17, N-[3-(5-chloro-1,3-benzoxazol-2-yl)-1-bicyclo[1.1.1]pentanyl]-5-[(methylsulfonimidoyl)methyl]furan-2-carboxamide] | 3.25 | 2.19 | > 100 |
| NS(=O)(=O)Cc1ccc(C(=O)NC23CC(c4nc5cc(Cl)ccc5o4)(C2)C3)o1 [Example 18, N-[3-(5-chloro-1,3-benzoxazol-2-yl)-1-bicyclo[1.1.1]pentanyl]-5-(sulfamoylmethyl)furan-2-carboxamide] | 4.96 | 3.7 | > 100 |
| O=C(NC12CC(c3nc4cc(Cl)ccc4o3)(C1)C2)c1cccc(Br)c1 [Example 19, 3-bromo-N-[3-(5-chloro-1,3-benzoxazol-2-yl)-1-bicyclo[1.1.1]pentanyl]benzamide] | 2.61 | 3.23 | > 100 |
| O=C(NC12CC(c3nc4cc(Cl)ccc4o3)(C1)C2)c1ccc(Br)cc1 [Example 20, 4-bromo-N-[3-(5-chloro-1,3-benzoxazol-2-yl)-1-bicyclo[1.1.1]pentanyl]benzamide] | 4.28 | 7.21 | > 100 |
| CSc1cccc(C(=O)NC23CC(c4nc5cc(Cl)ccc5o4)(C2)C3)c1 [Example 21, N-[3-(5-chloro-1,3-benzoxazol-2-yl)-1-bicyclo[1.1.1]pentanyl]-3-methylsulfanyl-benzamide] | 2.6 | 1.87 | > 100 |
